What all share (type): biochemical
Test [1] has as its target iNOS (Homo sapiens, UniProt P35228). Nature of the test: Assay Protocol for NOS Activity: formation of L-[3H]Citrulline from L-[3H]Arginine, iNOS. The procedure: (§1) NOS activity is measured as the formation of L-[2,3,4,5-^3H]Citrulline from L-[2,3,4,5-^3H]Arginine. The incubation buffer (100 uL) contained; 100 mM TES, pH 7.5, 5 μM FAD, 5 μM FMN, 10 μM BH4, 0.5 mM NADPH, 0.5 mM DTT, 0.5 mg/mL BSA, 2 mM CaC12, 10 ug/mL calmodulin (bovine), 1 μM L-Arg, 0.2 uCi L-[2,3,4,5-^3H]Arg, and the inhibitor in aqueous DMSO (max. 5%). The reaction is initiated by addition of enzyme. Incubations are performed at room temperature for 30 minutes and stopped by the addition of an equal volume of quenching buffer consisting of 200 mM sodium citrate, pH 2.2, 0.02% sodium azide. Reaction products are separated by passing through a cation exchange resin and quantitated as cpm by scintillation counting.

Test [2] deals with ecNOS (Homo sapiens, UniProt P29474). Nature of the test: Assay Protocol for NOS Activity: formation of L-[3H]Citrulline from L-[3H]Arginine, ecNOS. The procedure:
as §1

The target of test [3] is ncNOS (Homo sapiens, UniProt P29475). In words: Assay Protocol for NOS Activity: formation of L-[3H]Citrulline from L-[3H]Arginine, ncNOS. The procedure:
as §1

Setting [4] is: 1 μM L-Arg, room temperature, 30 minutes, read-out: iNOS (IC50).
The mark [5] stands for this setting: 1 μM L-Arg, room temperature, 30 minutes, read-out: ecNOS (IC50).
Setting [6] is: 1 μM L-Arg, room temperature, 30 minutes, read-out: ncNOS (IC50).

The structures appear in SMILES notation. Structures can show the parent of a compound that is named as a salt. Where two headings read alike, the source gives them in different places.

By IC50 is commonly meant the midpoint of a concentration-inhibition curve. Consider `CCCCC1CSCCC(N)=N1` (stereo not drawn) [Example 15, Hexahydro-5-imino-3-butyl-1,4-thiazepine. Hydrochloride], for which the results for the concentration for half-maximal inhibition (IC50) in test [1] (setting [4]), in test [2] (setting [5]) and in test [3] (setting [6]) were below 1 µM, above 50 µM and below 10 µM, respectively.

On to `NC1=NCCNCC1` [Example 1, Hexahydro-5-imino-(1H-1,4-diazepine Dihydrochloride], for which the IC50 in test [1] (setting [4]), in test [2] (setting [5]) and in test [3] (setting [6]) was above 50 µM throughout.

In the case of `CCCC1CSCCC(N)=N1` (stereo not drawn) [Example 4, Hexahydro-5-imino-3-propyl-1,4-thiazepine Hydrochloride], the results for the half-inhibitory concentration (IC50) in test [1], in test [2] and in test [3] were below 1 µM, below 50 µM and below 10 µM, respectively.

On to `CCC1CSCCC(N)=N1` (stereo not drawn) [Example 14, Hexahydro-5-imino-3-ethyl-1,4-thiazepine Hydrochloride], for which the results for the concentration for half-maximal inhibition (IC50) in test [1] (setting [4]), in test [2] (setting [5]) and in test [3] (setting [6]) were below 1 µM, below 50 µM and below 10 µM, respectively.

Take `CCCC1CSCCNC1=N` (stereo not drawn) [Example 5, Hexahydro-5-imino-6-propyl-1,4-thiazepine Hydrochloride]: the half-inhibitory concentration (IC50) in test [1] (setting [4]), in test [2] (setting [5]) and in test [3] (setting [6]) was above 50 µM throughout.

For `CC1CSCCC(N)=N1` (stereo not drawn) [Example 13, Hexahydro-5-imino-3-methyl-1,4-thiazepine Hydrochloride], the figures for the concentration for half-maximal inhibition (IC50) in test [1] (setting [4]), in test [2] (setting [5]) and in test [3] (setting [6]) were below 1 µM, below 10 µM and below 10 µM, respectively.

Consider `CCC[C@@H]1CSCCC(=N)N1` [Example 19, Hexahydro-5-imino-3(R)-propyl-1,4-thiazepine Acetic Acid Salt], for which the half-inhibitory concentration (IC50) was below 10 µM in test [1], below 50 µM in test [2] and below 10 µM in test [3].

For `NC1=NCCOCC1` [Example 3, Hexahydro-5-imino-1,4-oxazepine Hydrochloride.], the half-inhibitory concentration (IC50) in test [1] (setting [4]) was below 50 µM; in test [2] (setting [5]), below 50 µM; in test [3] (setting [6]), below 10 µM.

On to `N=C1CCS[C@H]2CCCC[C@@H]2N1` (racemic) [Example 17, (±)-trans-Decahydro-4-imino-benzo[b]-1,4-thiazepine Acetic Acid Salt], for which the IC50 in test [1] (setting [4]), in test [2] (setting [5]) and in test [3] (setting [6]) was above 50 µM throughout.

As for `CC1CN=C(N)CCS1` (stereo not drawn) [Example 7, Hexahydro-5-imino-2-methyl-1,4-thiazepine Hydrochloride], the IC50 in test [1] (setting [4]) was below 10 µM; in test [2] (setting [5]) it was below 10 µM; in test [3] (setting [6]), below 1 µM.

On to `CCC[C@H]1CSCCC(N)=N1` [Example 18, Hexahydro-5-imino-3(S)-propyl-1,4-thiazepine, Acetic Acid Salt], for which the 50% inhibitory concentration (IC50) is below 1 µM in test [1], below 10 µM in test [2] and below 1 µM in test [3].

In the case of `CC(C)=CCC1CSCCNC1=N` (stereo not drawn) [Example 8, Hexahydro-5-imino-6-(3-methyl-2-n-butenyl)-1,4-thiazepine Hydrochloride], the IC50 in test [1] (setting [4]), in test [2] (setting [5]) and in test [3] (setting [6]) was above 50 µM throughout.

In the case of `NC1=NCCSCC1` [Example 2, Hexahydro-5-imino-1,4-thiazepine Hydrochloride], the concentration for half-maximal inhibition (IC50) in test [1] (setting [4]) was below 10 µM; in test [2] (setting [5]), above 10 µM; in test [3] (setting [6]) it was below 10 µM.

For the compound `CC1CSCCN=C1N` (stereo not drawn) [Example 12, Hexahydro-5-imino-6-methyl-1,4-thiazepine Hydrochloride], the IC50 was above 50 µM in test [1] (setting [4]), below 50 µM in test [2] (setting [5]) and below 10 µM in test [3] (setting [6]).

On to `CC(C)CC1CSCCNC1=N` (stereo not drawn) [Example 10, Hexahydro-5-imino-6-(2-methyl-propyl)-1,4-thiazepine Hydrochloride], for which the IC50 was below 50 µM in test [1] (setting [4]), above 50 µM in test [2] (setting [5]) and above 50 µM in test [3] (setting [6]).

Regarding `CC(C)=CCC1CSCCC(=N)N1` (stereo not drawn) [Example 9, Hexahydro-5-imino-3-(3-methyl-2-n-butenyl)-1,4-thiazepine Hydrochloride], the figures for the IC50 in test [1] (setting [4]), in test [2] (setting [5]) and in test [3] (setting [6]) were below 1 µM, above 50 µM and below 50 µM, respectively.

`CC(C)CC1CSCCC(N)=N1` (stereo not drawn) [Example 11, Hexahydro-5-imino-3-(2-methyl-propyl)-1,4-thiazepine Hydrochloride]: the IC50 in test [1] (setting [4]) is below 1 µM; in test [2] (setting [5]), above 50 µM; in test [3] (setting [6]), below 10 µM.

As to `CN1CCN=C(N)CC1` [Example 20, Hexahydro-5-imino-1-methyl-1H-1,4-diazepine Hydrochloride.], the half-inhibitory concentration (IC50) in test [1] (setting [4]) was below 50 µM; in test [2] (setting [5]), above 50 µM; in test [3] (setting [6]) it was above 50 µM.

With `CC1CC(N)=NCCS1` (stereo not drawn) [Example 6, Hexahydro-5-imino-7-methyl-1,4-thiazepine Hydrochloride], the results for the IC50 in test [1] (setting [4]), in test [2] (setting [5]) and in test [3] (setting [6]) were below 10 µM, below 10 µM and below 1 µM, respectively.

Take `C=C(C)CC1CSCCC(=N)N1` (stereo not drawn) [Example 16, Hexahydro-5-imino-3-(2-methyl-3-propenyl)-1,4-thiazepine Hydrochloride.]: the IC50 is below 1 µM in test [1] (setting [4]), below 50 µM in test [2] (setting [5]) and below 10 µM in test [3] (setting [6]).

The values are drawn from patent publication US6372733B1, “Hexahydro-5-imino-1,4-1,4-thiazepine derivatives as inhibitors of nitric oxide synthases” (Merck & Co., Inc., priority 1995, dated 2002).
